Measured values from EP3298025B1, “NEW AMINO ACID SEQUENCES WITH MI[…] DERIVED FROM NAJA ATRA CARDIOTOXIN 1 (CTX-1)” (Università degli Studi di Parma, priority 2015, dated 2016).
Values joined by “and” are separate entries in the source; they are usually repeats but may differ in a detail not shown here. Identical values can stand only once. Residues, ends and D or L forms follow the SMILES beside them.

What was measured:
MRSA ATCC 43300 = experiment: antimicrobial activity in presence of NaCl; type: cell-based, Staphylococcus aureus
Experimental: Peptides were tested in the ability to inhibit bacterial growth in liquid medium. 50 µl of peptides at a concentration […] E. coli ATCC 25922, Pseudomonas aeruginosa ATCC 27853 and Staphylococcus aureus methicillin resistant ATCC 43300. After 2 hours incubation at 37°C, bacteria were plated on solid culture medium. Bacterial cultures were cultivated without peptides as growth control.
The bacterial suspension and peptides at differing concentrations were put in contact for about 2 hours at 37°C. After this incubation, 20 µl from every well of the plate were transplanted on solid culture medium, McConkey agar for Gram-negative and Columbia agar with 5% of bovine erythrocytes for Gram-positive bacteria. The inoculum was evenly distributed on the agar medium using a single use sterile handle. After an incubation time of 24 hours at 37°C, the bacterial colonies (cfu) were counted.

[1] = tested on: Malassetia pachydermatis ATCC 14522; experiment: micro-dilution in liquid medium and transplant on solid medium, yeasts; type: cell-based; conditions: 2 hours at 37°C, transplant on agar Sabouraud
Experimental: (§1) Candida albicans ATCC 10231, Candida glabrata ATCC 2001 and Malassetia pachydermatis ATCC 14522 were cultivated in Czapek-Dox broth (DIFCO) medium for 48-72 hours. On the day of the test the fungal culture was centrifuged at 1700G for 15 minutes and the pellet resuspended in phosphate buffer, then put in agitation on an electric vortex to disrupt fungal cell aggregations. The suspension was diluted to get a final optical density of 0,5 of the McFarland scale (about 1-5x10^6 cell/ml) (Branda J.A., Krantz A. Effect of yeast on automated cell counting. Am J Clin Pathol., 2006:126, 248-254.).
(§2) Peptides ability to inhibit the fungal growth in liquid cultures was tested. 50 µl of each peptides solutions of about 0.2-50 µM were added in microtiter plates with 96 wells with U-shaped bottom, with liquid culture medium and one of these fungi: Candida albicans ATCC 10231, Candida glabrata ATCC 2001 and Malassetia pachydermatis ATCC 14522. After 2 hours of incubation at 37°C, fungal suspensions were plated on solid culture medium, agar Sabouraud. Fungal cultures were cultivated without peptides as growth control.
(§3) the fungal suspension and peptides at differing concentrations were in contact for about 2 hours at 37°C. After this incubation, 20 µl from every well of the plate were transplanted on solid culture medium, agar Sabouraud. The inoculum was evenly distributed on the agar with the aid of a sterile disposable handle. After an incubation time of 24 hours at 37°C, the fungal colonies (cfu) were counted.

[2] = tested on: Candida glabrata ATCC 2001; experiment: as above; type: cell-based; conditions: 2 hours at 37°C, transplant on agar Sabouraud
Experimental: as §1, §2, §3

[3] = tested on: Candida albicans ATCC 10231; experiment: as above; type: cell-based; conditions: 2 hours at 37°C, transplant on agar Sabouraud
Experimental: as §1, §2, §3

[4] = tested on: Burkholderia cepacia ATCC 17759; experiment: micro-dilution in liquid medium and transplant on agar, Gram-negative bacteria; type: cell-based; conditions: 2 hours at 37°C, transplant on agar
Experimental: (§4) For each bacterial strain 3-5 morphologically similar colonies from fresh cultures were taken and inoculated in Brain Heart Infusion broth, then incubated at 37°C in agitation at 225 r.p.m. for about 3-4 hours. Then the bacterial suspension was centrifuged at 1000 G for 20 minutes and the pellet resuspended in phosphate buffer pH 7, 10 mM. The turbidity of the bacterial suspension was measured using a spectrophotometer with absorbance of 600 nm; the range 0.08-0.13 equates to about 10^8 cfu/ml. The bacterial suspension was diluted 1:100 in phosphate buffer 10mM to obtain a bacterial concentration of about 10^6 cfu/ml. Within 30 minutes 50 µl of the suspension (10^6 cfu/ml) were inoculated in each well of the microtiter plate, to obtain a bacterial concentration of about 5x10^5 cfu/ml.
(§5) The peptides ability to inhibit the bacterial growth in liquid cultures was tested. 50 µl of each peptides solutions of about 0,2-50 µM were added in microtiter plates with 96 wells with U-shaped bottom, containing the liquid culture medium and one of these bacterial strains: E coli ATCC 25922, Pseudomonas. Aeruginosa ATCC 27853, Proteus mirabilis ATCC 14153, Burkholderia cepacia ATCC 17759, Moraxella catharralis ATCC 25238 or other wild strains of Klebsiella pneumoniae subsp. pneumoniae, Enterobacter cloacae, Acinetobacter baumanii.
(§6) After 2 hours incubation at 37°C, the bacteria were transplanted on solid medium. As a growth reference, bacterial cultures were grown in absence of peptides.
(§7) The bacterial suspension and peptides were put in contact for 2 hours at 37°C, with differing concentrations of the peptide. Then 20 µl from each well of the plate were taken and transferred on solid culture medium, McConkey agar. The inoculum was uniformly distributed on the agar medium with aid of a sterile disposable handle. After an incubation time of 24 hours at 37°C, the bacterial colonies (cfu) were counted.

[5] = tested on: Acinetobacter baumanii from cloaca (ornithological); experiment: as above; type: cell-based; conditions: 2 hours at 37°C, transplant on agar
Experimental: as §4, §5, §6, §7

[6] = tested on: Acinetobacter baumanii (human strain); experiment: as above; type: cell-based; conditions: 2 hours at 37°C, transplant on agar
Experimental: as §4, §5, §6, §7

MRSA ATCC 43400 = experiment: micro-dilution in liquid medium and transplant on solid medium, Gram-positive bacteria; type: cell-based, Staphylococcus aureus; conditions: 2 hours at 37°C, transplant on agar
Experimental: as §4, with “0,08-0,13” for “0.08-0.13”, “10^6 cfu/ml” for “(10^6 cfu/ml)”
The peptides ability to inhibit the bacterial growth in liquid cultures was tested. 50 µl of each peptides solutions of about 0.2-50 µM were added in microtiter plates with 96 wells with liquid culture medium and one of these bacterial strains: Staphylococcus aureus ATCC 25923, MRSA ATCC 43300, Streptococcus agalactiae ATCC 13813 and Enterococcus hirae ATCC 10541. […]
The bacterial suspension and differing peptides concentrations were put in contact for about 2 hours at 37°C. […] After an incubation time of 24 hours at 37°C, the bacterial colonies (cfu) were counted.

Q: Which results are given for `CC[C@H](C)[C@H](NC(=O)[C@H](CCCCN)NC(=O)[C@H](Cc1ccc(O)cc1)NC(=O)[C@H](CS)NC(=O)[C@H](CC(C)C)NC(=O)[C@H](CC(N)=O)NC(=O)[C@H](CCCCN)NC(=O)CNC(=O)[C@H](C)NC(=O)[C@@H]1CCCN1C(=O)[C@H](CS)NC(=O)[C@@H](NC(=O)[C@H](CCCCN)NC(=O)[C@H](CO)NC(=O)[C@H](C)NC(=O)[C@@H](NC(=O)[C@@H]1CCCN1C(=O)[C@@H](NC(=O)[C@H](CC(C)C)NC(=O)[C@@H](N)CCCCN)[C@@H](C)CC)[C@@H](C)CC)[C@@H](C)O)C(=O)O` [NCP-0, K LIPIA SKT CPA GKN LCY KI] (H-KLIPIASKTCPAGKNLCYKI-OH; N-terminus and C-terminus assumed)?
A: Antimicrobial activity (% to control) (MRSA ATCC 43300; 10 mM NaCl, peptide 12.5 µg/ml): 0%; Antimicrobial activity (% to control) (MRSA ATCC 43300; 10 mM NaCl, peptide 100 µg/ml): 2%; Antimicrobial activity (% to control) (MRSA ATCC 43300; 125 mM NaCl, peptide 12.5 µg/ml): 0%; Antimicrobial activity (% to control) (MRSA ATCC 43300; 125 mM NaCl, peptide 100 µg/ml): 0%; Antimicrobial activity (% to control) (MRSA ATCC 43300; 250 mM NaCl, peptide 12.5 µg/ml): 0%; Antimicrobial activity (% to control) (MRSA ATCC 43300; 250 mM NaCl, peptide 100 µg/ml): 0%; LD90 [1]: 150.82 µg/ml and 69.8 µM; LD99 [1]: 151.87 µg/ml and 70.3 µM; LD90 [2]: > 100 µg/ml and > 46.3 µM; LD99 [2]: > 200 µg/ml and > 92.6 µM; LD90 [3]: > 100 µg/ml and > 46.3 µM; LD99 [3]: > 200 µg/ml and > 92.6 µM; LD90 [4]: 39.35 µg/ml and 17.8 µM; LD99 [4]: 39.43 µg/ml and 18.3 µM; LD90 [5]: 126.205 µg/ml and 58.4 µM; LD99 [5]: 127,26 µg/ml and 59 µM; LD90 [6]: 123.77 µg/ml and 57.3 µM; LD99 [6]: 131.55 µg/ml and 61 µM; LD90 (MRSA ATCC 43400): > 100 µg/ml and > 46.3 µM; LD99 (MRSA ATCC 43400): > 200 µg/ml and > 92.6 µM
